Measurements from patent publication US20100004257A1 (University of South Floria, priority 2007, published 2010).
Read-outs that look alike come from different tables or passages of the source.

How the values were obtained:
[1] = system: imatinib-resistant BCR-ABL mutants; conditions: number of mutants / mutants tested; cited from earlier work
[2] = system: pAkt, cleaved PARP in PC9 cells; test: Western analysis of pAkt, pSTAT3 and cleaved PARP; assay type: cell-based, Human; conditions: 24 hours
[3] = system: pAkt, pSTAT3, cleaved PARP in H1975 cells; test: Western analysis of pAkt, pSTAT3 and cleaved PARP; assay type: cell-based, Human; conditions: 24 hours
[4] = system: pTyr416 Src (pSrc) family in PC9 cells; test: Western analysis of Src phosphorylation status; assay type: cell-based, Human; conditions: 50 nmol/L, 24 hours
[5] = system: pTyr416 Src (pSrc) family in H1650 cells; test: Western analysis of Src phosphorylation status; assay type: cell-based, Human; conditions: H1650 cells; 50 nmol/L; monohydrate
H460 cells = test: MTT assay after 120 hours, IC50; assay type: cell-based; conditions: Homo sapiens, NCI-H460, 120 h
Text: (§1) Cell lines and cell culture. Human lung cancer cell lines were maintained in RPMI 1640 plus 5% bovine calf serum (BCS). H3255 cells were provided by Dr. Pasi Janne (Dana-Farber, Boston, Mass.) and grown in ACL-4 medium (12). HCC827 cells were provided by Dr. Jon Kurie (M. D. Anderson, Houston, Tex.). PC9 cells were provided by Dr. Matthew Lazzara (Massachusetts Institute of Technology, Boston, Mass.). […]. Gefitinib was provided by AstraZeneca (Wilmington, Del.) and dasatinib by Bristol-Myers Squibb Oncology (Princeton, N.J.). For cell transfection experiments, 2×10^6 HEK293 cells in a 6-cm dish maintained in DMEM/10% BCS were transfected with 1 Ag plasmid DNA for 3 hours using LipofectAMINE 2000 (Invitrogen, Carlsbad, Calif.) and then allowed to go 24 hours before being treated with inhibitors.
(§2) Cytotoxicity and apoptosis assays. Cytotoxicity assays [3-(4,5-dimethylthiazol-2-yl)-2,5-diphenyltetrazolium bromide] were done according to the manufacturer's recommendations (Roche, Indianapolis, Ind.). […] Data presented represent three separate experiments with eight data points per concentration per experiment. Apoptosis [PharMingen (San Diego, Calif.) Apo-BrdU kit] and cell cycle changes (propidium iodide staining and flow cytometry) were assayed as before (13). Data are expressed as mean±SD.

H441 cells [6] = test: MTT assay after 120 hours, IC50; assay type: cell-based; conditions: Homo sapiens, NCI-H441, 120 h
Text: as §1, §2

H23 cells = test: MTT assay after 120 hours, IC50; assay type: cell-based; conditions: Homo sapiens, NCI-H23, 120 h
Text: as §1, §2

H2122 cells = test: MTT assay after 120 hours, IC50; assay type: cell-based; conditions: Homo sapiens, NCI-H2122, 120 h
Text: as §1, §2

H226 cells = test: MTT assay after 120 hours, IC50; assay type: cell-based; conditions: Homo sapiens, NCI-H226, 120 h
Text: as §1, §2

H1650 cells = test: Cell viability, dasatinib compared with gefitinib, 72 hours; assay type: cell-based, Human; conditions: H1650 grown in 5% BCS, FIG. 6
Protocol: FIG. 6. presents a series of four graphs, with each graph representative of a different cell line as indicated at the top of the graph.
Cytotoxicity and apoptosis assays. Cytotoxicity assays [3-(4,5-dimethylthiazol-2-yl)-2,5-diphenyltetrazolium bromide] were done according to the manufacturer's recommendations (Roche, Indianapolis, Ind.). Cells (5×10^3) in medium with 5% BCS were placed into single wells in a 96-well plate and exposed to indicated agents, and viability was assessed after 72 hours. Data presented represent three separate experiments with eight data points per concentration per experiment. Apoptosis [PharMingen (San Diego, Calif.) Apo-BrdU kit] and cell cycle changes (propidium iodide staining and flow cytometry) were assayed as before (13). Data are expressed as mean±SD.

H441 cells [7] = test: Combination effect in cell viability assays, median dose effect method; assay type: cell-based, Human; conditions: dose range used
Protocol: Combination effects were evaluated by median dose effect method.

[8] = system: pAkt, pSTAT3, cleaved PARP in H3255 cells; test: Western analysis of pAkt, pSTAT3 and cleaved PARP; assay type: cell-based, Human; conditions: increasing concentrations, 24 hours
A549 cells [9] = test: Cell cycle profile and cyclin D/p27 Western analysis; assay type: cell-based, Human; conditions: 24 hours, gefitinib 1 μmol/L, dasatinib 500 nmol/L
[10] = system: pFAK, pSTAT3, pAkt, pERK in A549 cells; test: Western analysis of pFAK, pSTAT3, pAkt, pERK; assay type: cell-based, Human; conditions: 500 nmol/L, 3 hours
[11] = system: pTyr416 Src (pSrc) family in H1975 cells; test: Western analysis of Src phosphorylation status; assay type: cell-based, Human; conditions: 24 hours, dasatinib at 50 nmol/L
H358 cells [12] = conditions: 24 hours, gefitinib 1 μmol/L, dasatinib 500 nmol/L, or the combination
[13] = dosing for CML; ODAC briefing document; cited from earlier work
H292 cells = test: MTT assay after 120 hours, IC50; assay type: cell-based, Human; conditions: for IC50: Homo sapiens, NCI-H292, 120 h
Text: as §1, §2

H1648 cells = test: MTT assay after 120 hours, IC50; assay type: cell-based, Human; conditions: for IC50: Homo sapiens, NCI-H1648, 120 h
Text: as §1, §2

H322 cells = test: MTT assay after 120 hours, IC50; assay type: cell-based, Human; conditions: for IC50: Homo sapiens, NCI-H322, 120 h
Text: as §1, §2

H358 cells [14] = test: MTT assay after 120 hours, IC50; assay type: cell-based, Human; conditions: for IC50: Homo sapiens, NCI-H358, 120 h
Text: as §1, §2

H157 cells = test: MTT assay after 120 hours, IC50; assay type: cell-based, Human; conditions: for IC50: Homo sapiens, NCI-H157, 120 h
Text: as §1, §2

H1299 cells = test: MTT assay after 120 hours, IC50; assay type: cell-based, Human; conditions: for IC50: Homo sapiens, NCI-H1299, 120 h
Text: as §1, §2

[15] = system: pAkt, pSTAT3, cleaved PARP in H1650 cells; test: Western analysis of pAkt, pSTAT3 and cleaved PARP; assay type: cell-based, Human; conditions: 24 hours
A549 cells [16] = test: MTT assay after 120 hours, IC50; assay type: cell-based; conditions: Homo sapiens, A549, 120 h, read-out: EGFR TKI IC50 (Nm)
Text: Cell lines and cell culture. […] Gefitinib was provided by AstraZeneca (Wilmington, Del.) and dasatinib by Bristol-Myers Squibb Oncology (Princeton, N.J.).
Cytotoxicity and apoptosis assays. Cytotoxicity assays [3-(4,5-dimethylthiazol-2-yl)-2,5-diphenyltetrazolium bromide] were done according to the manufacturer's recommendations (Roche, Indianapolis, Ind.). Cells (5×10^3) in medium with 5% BCS were placed into single wells in a 96-well plate and exposed to indicated agents, and viability was assessed after 72 hours. Data presented represent three separate experiments with eight data points per concentration per experiment. […] Data are expressed as mean±SD.

[17] = system: lung cancer cells with EGFR mutation that are resistant to EGFR TKI; test: Apoptosis and cell cycle in cells with acquired resistance to erlotinib; assay type: cell-based, Human; conditions: EGFR mutant cells resistant to EGFR TKI

Cc1cn(-c2cc(NC(=O)c3ccc(C)c(Nc4nccc(-c5cccnc5)n4)c3)cc(C(F)(F)F)c2)cn1 [AMN107]
imatinib-resistant BCR-ABL mutants against which significantly active [1]: 32/33

Cc1nc(Nc2ncc(C(=O)Nc3c(C)cccc3Cl)s2)cc(N2CCN(CCO)CC2)n1 [dasatinib, N-(2-chloro-6-methylphenyl)-2-[[6-[4-[(2-hydroxyethyl)-1-pipperazinyl]-2-methyl-4-pyrimidinyl]amino]-5-thiazolecarboxamide, monohydrate]
PARP cleavage ([2]; gefitinib at 50 nmol/L, dasatinib at increasing concentrations): associated changes in PARP cleavage
pAkt ([2]; increasing concentrations): dose-dependent inhibition of pAkt
PARP cleavage [3]: no PARP cleavage
pAkt or pSTAT3 [3]: neither gefitinib nor dasatinib affects
pSrc [4]: inhibits pSrc
autophosphorylation of Tyr416 on Src family members (pSrc) [5]: completely inhibits pSrc
IC50 (H460 cells; read-out: Dasatinib IC50 (Nm)): > 2000 nM
IC50 (H441 cells [6]; read-out: Dasatinib IC50 (Nm)): > 2000 nM
IC50 (H23 cells; read-out: Dasatinib IC50 (Nm)): > 2000 nM
IC50 (H2122 cells; read-out: Dasatinib IC50 (Nm)): 486 nM
IC50 (H226 cells; read-out: Dasatinib IC50 (Nm)): 709 nM
cell viability, dasatinib versus gefitinib (H1650 cells): inhibited cell viability more than gefitinib
effect on cell viability (H441 cells [7]): no effect
PARP cleavage [8]: increase in PARP cleavage
pAkt and pSTAT3 [8]: concentration-dependent decrease of both pAkt and pSTAT3
cell cycle profile (A549 cells [9]; FIG. 12): cell cycle arrest characterized by increased G1 fraction and reduced S-phase fraction
cyclin D3 and p27 proteins (A549 cells [9]; FIG. 13): decline in cyclin D3 and an increase in p27
pFAK [10]: reduction in pFAK
pSTAT3, pAkt, or pERK [10]: no significant reductions
pSrc [11]: completely inhibits the low levels of pSrc
G1 cell cycle arrest (H358 cells [12]): G1 cell cycle arrest to the same extent
cyclins D1 and D3 and p27 protein levels (H358 cells [12]): reduced cyclins D1 and D3 and increased p27 protein levels
Cmax [13]: 60 to 120 nM
SRC Sensitivity (H292 cells; H292, Squamous, EGFR WT, MTT 120 hours): S (SRC TKI Sensitivity Definition: IC50 less than 100 nM)
IC50 (H292 cells; read-out: Dasatinib IC50 (Nm)): 28.4 nM
SRC Sensitivity (H1648 cells; H1648, Adeno, EGFR WT, MTT 120 hours): S (SRC TKI Sensitivity Definition: IC50 less than 100 nM)
IC50 (H1648 cells; read-out: Dasatinib IC50 (Nm)): 20.9 nM
SRC Sensitivity (H322 cells; H322, BAC, EGFR WT, MTT 120 hours): S (SRC TKI Sensitivity Definition: IC50 less than 100 nM)
IC50 (H322 cells; read-out: Dasatinib IC50 (Nm)): 11.6 nM
SRC Sensitivity (H358 cells [14]; H358, BAC, EGFR WT, MTT 120 hours): S (SRC TKI Sensitivity Definition: IC50 less than 100 nM)
IC50 (H358 cells [14]; read-out: Dasatinib IC50 (Nm)): 27.4 nM
SRC Sensitivity (H157 cells; H157, Squamous, EGFR WT, MTT 120 hours): S (SRC TKI Sensitivity Definition: IC50 less than 100 nM)
IC50 (H157 cells; read-out: Dasatinib IC50 (Nm)): 48.9 nM
SRC Sensitivity (H1299 cells; H1299, Large Cell, EGFR WT, MTT 120 hours): S (SRC TKI Sensitivity Definition: IC50 less than 100 nM)
IC50 (H1299 cells; read-out: Dasatinib IC50 (Nm)): 31.6 nM
pSTAT3 ([15]; H1650, any growth conditions): No effect
PARP cleavage ([15]; H1650 grown in 5% BCS): induction of PARP cleavage
pAkt ([15]; H1650 grown in 5% BCS, dasatinib at 50 nmol/L): inhibits pAkt
pAkt ([15]; H1650 in low serum with exogenous EGF, 50 nmol/L): inhibit pAkt
degree of PARP cleavage, dasatinib versus gefitinib ([15]; H1650 in low serum with exogenous EGF): degree of PARP cleavage is higher

C#Cc1cccc(Nc2ncnc3cc(OCCOC)c(OCCOC)cc23)c1 [erlotinib]
IC50 (H460 cells; read-out: EGFR TKI IC50 (Nm)): > 2000 nM
IC50 (H441 cells [6]; read-out: EGFR TKI IC50 (Nm)): > 2000 nM
IC50 (H23 cells; read-out: EGFR TKI IC50 (Nm)): > 2000 nM
IC50 (H2122 cells; read-out: EGFR TKI IC50 (Nm)): 748 nM
IC50 (H226 cells; read-out: EGFR TKI IC50 (Nm)): > 2000 nM
effect on cell viability (H441 cells [7]): no effect
IC50 (A549 cells [16]): > 2000 nM
cell cycle [17]: no observable effect on cell cycle
IC50 (H292 cells; read-out: EGFR TKI IC50 (Nm)): 63.4 nM
EGFR TKI Sensitivity (H292 cells; erlotinib, H292, Squamous, EGFR WT, MTT 120 hours): S (EGFR TKI Sensitivity Definition: Reported IC50 < or = 1 μM)
IC50 (H1648 cells; read-out: EGFR TKI IC50 (Nm)): 75.8 nM
EGFR TKI Sensitivity (H1648 cells; erlotinib, H1648, Adeno, EGFR WT, MTT 120 hours): S (EGFR TKI Sensitivity Definition: Reported IC50 < or = 1 μM)
IC50 (H322 cells; read-out: EGFR TKI IC50 (Nm)): 135 nM
EGFR TKI Sensitivity (H322 cells; erlotinib, H322, BAC, EGFR WT, MTT 120 hours): S (EGFR TKI Sensitivity Definition: Reported IC50 < or = 1 μM)
IC50 (H358 cells [14]; read-out: EGFR TKI IC50 (Nm)): 199 nM
EGFR TKI Sensitivity (H358 cells [14]; erlotinib, H358, BAC, EGFR WT, MTT 120 hours): S (EGFR TKI Sensitivity Definition: Reported IC50 < or = 1 μM)
IC50 (H157 cells; read-out: EGFR TKI IC50 (Nm)): > 2000 nM
IC50 (H1299 cells; read-out: EGFR TKI IC50 (Nm)): > 2000 nM
